The values below come from publication PMC4890124, “Antimicrobial activity, improved cell selectivity and mode of action of short PMAP-36-derived peptides against bacteria and Candida” (Scientific Reports, 2016).

The structures appear in SMILES notation. Converted amounts (≈) assume the structure as drawn. Marks after values point to notes of the source that are not given here.

In assay [1] the test system is fungi (four Candida strains). Put plainly: Geometric mean MIC and selectivity index, panel of fungi. The note with it: geometric mean of the MIC values against the fungi of Table 3. The class given is cell-based. The text has this:
The antifungal activities were monitored in RPMI-1640 broth medium by a 2-fold microdilution assay according to the Clinical and Laboratory Standards Institute (CLSI) methods. The Candida albicans CGMCC 2.2086, Candida tropicalis CGMCC 2.1975, and Candida krusei CGMCC 2.1857 fungal strains were purchased from the China General Microbiological Culture Collection Center (CGMCC, Beijing, China). Clinically isolated Candida albicans CA2761 was provided by the 4th Affiliated Hospital of Harbin Medical University. Briefly, fungal strains were cultured on YPD agar plates (1% peptone, 0.5% yeast extract, 1% glucose and 2% agar) at 28 °C to prepare Candida suspensions with a turbidity of a 0.5 McFarland standard. A total of 50 μl inoculum cell suspension diluted in RPMI-1640 broth medium was added to an equal volume of peptide solution to achieve a final peptide concentrations ranging from 0.25 μM to 128 μM in a 96-well plate. Pure broth alone or with inoculum suspensions was used as the negative control or the positive control, respectively. The plate was incubated at 28 °C for 48 h. MIC was considered the lowest concentration at which no fungal growth was visually observed under experimental conditions. […]
SI values were determined by the ratio of MHC to GM, indicating the specificity of peptides towards pathogens and eukaryotic cells. […]

Assay [2] deals with Staphylococcus aureus ATCC 25923. The conditions noted are these: values marked c, determined as previously described; cited from earlier work. The text has this:
Table 2 MIC and MBC of the peptides against bacteria. | column: MIC ^a (MBC ^b) (μM) / Gram-positive bacteria / S. aureus 25923

Assay [3] concerns Escherichia coli ATCC 25922. The conditions noted are these: values marked c, determined as previously described; cited from earlier work. The text has this:
Table 2 MIC and MBC of the peptides against bacteria. | column: MIC ^a (MBC ^b) (μM) / Gram-negative bacteria / E. coli 25922

The subject of assay [4] is Staphylococcus aureus ATCC 29213. The conditions noted are these: values marked c, determined as previously described; cited from earlier work. The text has this:
Table 2 MIC and MBC of the peptides against bacteria. | column: MIC ^a (MBC ^b) (μM) / Gram-positive bacteria / S. aureus 29213

Assay [5] deals with Staphylococcus epidermidis ATCC 12228. The conditions noted are these: values marked c, determined as previously described; cited from earlier work. The text has this:
Table 2 MIC and MBC of the peptides against bacteria. | column: MIC ^a (MBC ^b) (μM) / Gram-positive bacteria / S. epidermidis 12228

The subject of assay [6] is Salmonella enterica serovar typhimurium C77-31. The note with it: values marked c, determined as previously described; cited from earlier work. The text has this:
Table 2 MIC and MBC of the peptides against bacteria. | column: MIC ^a (MBC ^b) (μM) / Gram-negative bacteria / S. typhi C77-31

The test system of assay [7] is C. albicans CA276 (clinical isolate). Kind of assay: microbe, parasite or virus in culture. The conditions noted are these: three independent experiments. The class given is cell-based, Candida albicans. The text has this: (§1) The antifungal activities were monitored in RPMI-1640 broth medium by a 2-fold microdilution assay according to the Clinical and Laboratory Standards Institute (CLSI) methods. The Candida albicans CGMCC 2.2086, Candida tropicalis CGMCC 2.1975, and Candida krusei CGMCC 2.1857 fungal strains were purchased from the China General Microbiological Culture Collection Center (CGMCC, Beijing, China). Clinically isolated Candida albicans CA2761 was provided by the 4th Affiliated Hospital of Harbin Medical University. Briefly, fungal strains were cultured on YPD agar plates (1% peptone, 0.5% yeast extract, 1% glucose and 2% agar) at 28 °C to prepare Candida suspensions with a turbidity of a 0.5 McFarland standard. A total of 50 μl inoculum cell suspension diluted in RPMI-1640 broth medium was added to an equal volume of peptide solution to achieve a final peptide concentrations ranging from 0.25 μM to 128 μM in a 96-well plate. Pure broth alone or with inoculum suspensions was used as the negative control or the positive control, respectively. The plate was incubated at 28 °C for 48 h. MIC was considered the lowest concentration at which no fungal growth was visually observed under experimental conditions. […] After 48 h incubation at 28 °C, MFC was defined as the lowest concentration of peptides that killed at least 99.9% of the initial inoculums. Experiments were performed in triplicate with three biological replicates.

Assay [8] relates to Escherichia coli ATCC 25922. The class given is cell-based. The conditions noted are these: lowest concentration killing at least 99.9% of initial inoculum; plated on MHA after MIC incubation; three independent experiments. How it is done:
(§2) The peptide antibacterial activity was determined against both gram-positive and gram-negative bacteria strains, including Escherichia coli ATCC 25922, Escherichia coli UB1005, Salmonella enterica serovar typhimurium C77-31, Staphylococcus aureus ATCC 29213, Staphylococcus aureus ATCC 25923, Bacillus subtilis CMCC 63501, and Staphylococcus epidermidis ATCC 12228. Clinically isolated Escherichia coli EC183 was provided by the 4th Affiliated Hospital of Harbin Medical University. MIC of the peptides was measured using a modified version of the National Committee for Clinical Laboratory Standards (NCCLS) broth microdilution method as described previously. The bacterial strains were inoculated and grown to mid-log phase in fresh Mueller-Hinton broth (MHB) at 37 °C. Bacterial inoculum suspensions were prepared at a final concentration of approximately 1 × 10^5 CFU/ml. Peptides were 2-fold serially diluted to make different concentrations, from 0.5 to 256 μM. Equal volumes of inoculum suspensions were then added to each well of a sterile 96-well plate with different concentrations of peptides, and the plate was incubated for 18 h at 37 °C. Broth with or without bacteria was employed as the positive control or the negative control, respectively. MIC was defined as the lowest concentration of peptides that prevented visible turbidity by visual inspection. […] After overnight incubation at 37 °C, MBC was defined as the lowest concentration of peptides that killed at least 99.9% of the initial inoculums. Experiments were performed in triplicate with three biological replicates.

Assay [9] relates to Staphylococcus aureus ATCC 29213. The class given is cell-based. The conditions noted are these: lowest concentration killing at least 99.9% of initial inoculum; three independent experiments. How it is done: as §2
Assay [10] concerns Clinically isolated Escherichia coli EC183. The class given is cell-based. The note with it: three independent experiments. How it is done:
as §2

Assay [11] concerns Salmonella enterica serovar typhimurium C77-31. The assay is classed as cell-based. The conditions noted are these: lowest concentration killing at least 99.9% of initial inoculum; three independent experiments. How it is done: as §2
The test system of assay [12] is Bacillus subtilis CMCC 63501. The class given is cell-based. The conditions noted are these: lowest concentration killing at least 99.9% of initial inoculum; three independent experiments. How it is done: as §2
Assay [13] has as its system Escherichia coli UB1005. The class given is cell-based. The note with it: lowest concentration killing at least 99.9% of initial inoculum; three independent experiments. How it is done:
as §2

The subject of assay [14] is Candida tropicalis CGMCC 2.1975. Kind of assay: microbe, parasite or virus in culture. The assay is classed as cell-based. The conditions noted are these: three independent experiments.
From the text: as §1

Assay [15] concerns Candida krusei CGMCC 2.1857. Kind of assay: microbe, parasite or virus in culture. The class given is cell-based. The conditions noted are these: three independent experiments.
From the text: as §1

The test system of assay [16] is Candida albicans CGMCC 2.2086. Put plainly: microbe, parasite or virus in culture. The conditions noted are these: three independent experiments. The class given is cell-based.
From the text: as §1

The subject of assay [17] is Escherichia coli UB1005. The conditions noted are these: values marked c, determined as previously described; cited from earlier work. The text has this:
Table 2 MIC and MBC of the peptides against bacteria. | column: MIC ^a (MBC ^b) (μM) / Gram-negative bacteria / E. coli 1005

[18] abbreviates: CLSI 2-fold microdilution, RPMI-1640, 28 °C for 48 h, visual.
[19] abbreviates: lowest concentration killing at least 99.9% of initial inoculum, YPD agar, 48 h at 28 °C.

Consider `CC[C@H](C)[C@H](NC(=O)CN)C(=O)NCC(=O)N[C@@H](C)C(=O)N[C@H](C(=O)N[C@@H](CC(C)C)C(=O)N[C@@H](CCCCN)C(=O)N[C@H](C(=O)N[C@@H](CC(C)C)C(=O)N[C@H](C(=O)N[C@H](C(=O)NCC(=O)N[C@@H](CC(C)C)C(=O)N1CCC[C@H]1C(=O)N[C@@H](C)C(=O)N[C@@H](CC(C)C)C(=O)N[C@H](C(=O)N[C@@H](CO)C(=O)N[C@@H](Cc1c[nH]c2ccccc12)C(=O)N[C@H](C(=O)N[C@@H](CCCCN)C(=O)N[C@@H](CCCNC(=N)N)C(=O)N[C@@H](CCCCN)C(=O)N[C@@H](CCCNC(=N)N)C(=O)N[C@@H](CCC(N)=O)C(=O)N[C@@H](CCC(N)=O)C(N)=O)[C@@H](C)CC)[C@@H](C)CC)[C@@H](C)O)[C@@H](C)O)C(C)C)C(C)C` [melittin, reference compound], for which, in assay [1], the “GM (geometric mean of MIC values) Fungi” value turned out to be 3.36 µM. Moreover, the “MIC S. aureus 25923” value in assay [2] was 8^c (8) μM. In addition, in assay [3], the “MIC E. coli 25922” value was 2 µM (≈ 5.69 µg/mL). The “MIC S. aureus 29213” value in [4] was 8 µM (≈ 22.8 µg/mL). Also, the “MIC S. epidermidis 12228” value in assay [5] is 0.5 µM (≈ 1.42 µg/mL). Also, the “MIC S. typhi C77-31” value in [6] is 2^c (2) μM. Further, the MIC turned out to be 8 µM (≈ 22.8 µg/mL) in assay [7] (setting [18]), 2 µM (≈ 5.69 µg/mL) in assay [15] (setting [18]) and 4 µM (≈ 11.4 µg/mL) in assay [16] (setting [18]). The MFC – broadly, the smallest concentration meeting the test's criterion for killing the fungus – in assay [7] (setting [19]) is 16 µM (≈ 45.5 µg/mL); in [15] (setting [19]), 4 µM (≈ 11.4 µg/mL); in assay [16] (setting [19]), 8 µM (≈ 22.8 µg/mL). Also, the “MBC E. coli 25922” value in [8] came out at 4 µM (≈ 11.4 µg/mL). In addition, the “MBC S. aureus 29213” value in assay [9] came out at 16 µM (≈ 45.5 µg/mL). In addition, in assay [10] (broth microdilution, MHB, ~1 × 10^5 CFU/ml, 18 h at 37 °C, visual), the MIC E. coli EC183 was found to be 2 µM (≈ 5.69 µg/mL). This compound also gave an MBC E. coli EC183 in [10] (lowest concentration killing at least 99.9% of initial inoculum) of 2 µM (≈ 5.69 µg/mL). For the same compound, the “MBC S. typhi C77-31” value in [11] is reported as 2^c (2) μM. The “MBC B. subtilis 63501” value in assay [12] was 2 µM (≈ 5.69 µg/mL). For the same compound, in the assay on Escherichia coli UB1005 [13], the “MBC E. coli 1005” value is 4 µM (≈ 11.4 µg/mL). The same compound displayed an MIC C. tropicalis 2.1975 in [14] (setting [18]) of 2 µM (≈ 5.69 µg/mL). The compound further displayed an MFC C. tropicalis 2.1975 in assay [14] (setting [19]) of 2 µM (≈ 5.69 µg/mL). Further, the “MIC E. coli 1005” value in the assay on Escherichia coli UB1005 [17] is 2 µM (≈ 5.69 µg/mL).
